In US12013398B2, “Compositions and methods for treatment of invasive cancers” (The George Washington University, priority 2021, dated 2024):
Entries after “also recorded” stand apart in the source; their conditions may differ.

Legend:
Assay type in all cases: cell-based
ATP1a1 = molecular target: T1, ATP1a1 (Homo sapiens, UniProt P05023); assay: Immunofluorescence imaging of plasma membrane ATP1A1 localization in overconfluent DCIS.com cells; conditions: OC DCIS.com cells; 20 nM lithium bicarbonate or 100 nM ouabain, 24 hours; IF images
T1 construct: endogenous in cells; host or cells: MCF10DCIS.com (DCIS.com) cells, overconfluent
Text: FIGS. 4A-4B depict images illustrating ion channel enrichment in DCIS plasma membranes. […] Transferrin receptor (TfR) distribution was insensitive to cell crowding. IF images. […] Scale bar=10 μm.
Crowding-induced cell volume changes typically occur under isotonic conditions and are accompanied by the efflux of intracellular osmolytes through ion channels. Methods herein assessed if ion channel activities were altered when cells are crowded.

DCIS.com cells [1] = assay: Cell cycle arrest in crowded DCIS.com cells; conditions: crowded DCIS cells treated with TSA vs vehicle
Text: FIGS. 11A-11D depict images and graphs illustrating independent possibilities for crowding-mediated increased invasiveness. […] FIGS. 11C-11D show images of DCIS.com cell invasiveness after treatment with vehicle or TSA (FIG. 11C) and the percentage of invasive cells per treatment group (FIG. 11D).
(§1) Also assessed were two independent possibilities for crowding-mediated increased invasiveness: YAP-association and cell cycle arrest (high-density cells are subject to G1 arrest).

DCIS.com cells [2] = assay: 2D hydrogel matrix-based invasion assay; conditions: crowded DCIS.com cells treated with TSA vs vehicle
Text: FIGS. 6A-6G depict images illustrating 2D hydrogel-based invasion assays. […] Percent (%) invading cells was calculating by dividing this value by the total number of spots. […] Scale bar=100 μm (FIGS. 6B-6E) and 10 μm (FIGS. 6F-6G).
To compare the invasive potential of live cells between different treatment groups, exemplary methods herein established a hydrogel matrix-based invasion assay (FIG. 6A). This assay was used to quantify the invasive cell fraction as a percentage of the total, based on fluorescence imaging results (FIGS. 6B-6E). Since cell stiffness is modulated by the stiffness of the surroundings [the values for normal breast versus DCIS cells are known to be ˜0.1 versus ˜10 kPa], the hydrogel matrix could be stiffness-controlled within the range specified above, as confirmed by nanoindenter measurements.
as §1

| Structure (SMILES) | PM ATP1a1 localization / PM abundance of ion channels (ATP1a1) | cell cycle arrest (DCIS.com cells [1]) | invasiveness of DCIS.com cells (percentage of invasive cells) (DCIS.com cells [2]) |
| --- | --- | --- | --- |
| C[C@@H]1O[C@@H](O[C@H]2C[C@@H](O)[C@]3(CO)[C@H]4[C@H](O)C[C@]5(C)[C@@H](C6=CC(=O)OC6)CC[C@]5(O)[C@@H]4CC[C@]3(O)C2)[C@H](O)[C@H](O)[C@H]1O [ouabain] | the PM abundance of ion channels was perturbed; also recorded: perturbed PM ATP1a1 localization |  |  |
| CC(/C=C/C(=O)NO)=C\[C@@H](C)C(=O)c1ccc(N(C)C)cc1 [Trichostatin A] |  | reversed the cell cycle arrest | did not decrease the invasiveness |
| O=C([O-])O.[Li+] [lithium bicarbonate] | the perturbation was less obvious |  |  |
